PubChem BioAssay AID1645864 (Buhrlage Lab, Dana-Farber Cancer Institute and Novartis …, 2021)
pIC50: −log10 of the molar value. The source made the active and inactive calls.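 The calls were made as follows: active = maximal inhibition of USP17 at or above 30% in the confirmation dose-response, a value not among the printed readouts; inactive = the rest.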

What follows are compounds tested against Ubiquitin carboxyl-terminal hydrolase 17-like protein 5 (Homo sapiens) (UniProt A8MUK1) (assay: ubiquitin-specific protease 17 DUB inhibitors, concentration-effect assay, cell-free, verification of initial screening actives (AID 1645864)). Details: purified USP17, ubiquitin-rhodamine cleavage fluorescence, 3 h.
Chain of Ubiquitin carboxyl-terminal hydrolase 17-like protein 5 (Homo sapiens) (A8MUK1 whole entry, looked up): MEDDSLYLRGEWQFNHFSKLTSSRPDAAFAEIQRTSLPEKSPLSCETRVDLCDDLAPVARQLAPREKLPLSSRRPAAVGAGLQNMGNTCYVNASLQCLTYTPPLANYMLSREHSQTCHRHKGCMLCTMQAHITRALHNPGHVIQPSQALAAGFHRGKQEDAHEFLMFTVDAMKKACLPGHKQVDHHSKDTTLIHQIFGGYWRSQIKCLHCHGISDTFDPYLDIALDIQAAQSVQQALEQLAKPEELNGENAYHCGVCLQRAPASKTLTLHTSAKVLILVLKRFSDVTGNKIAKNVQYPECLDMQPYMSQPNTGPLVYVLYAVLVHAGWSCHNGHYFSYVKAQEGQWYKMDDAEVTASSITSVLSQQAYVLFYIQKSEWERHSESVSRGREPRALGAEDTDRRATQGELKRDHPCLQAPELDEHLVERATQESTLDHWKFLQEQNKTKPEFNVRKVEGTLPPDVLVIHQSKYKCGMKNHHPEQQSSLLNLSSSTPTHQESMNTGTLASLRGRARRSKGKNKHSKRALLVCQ

| IC50 | pIC50 | SMILES |
| --- | --- | --- |
| > 50 µM (inactive) | – | Cc1ccc(-c2nc(Cn3nnc(-c4nc(-c5ccccn5)no4)c3C)c(C)o2)cc1 |
| – | 4.75 | COc1ccc(C2/C(=C(\O)c3ccccc3)C(=O)C(=O)N2c2nc3ccc(F)cc3s2)cc1 (centres undefined) |
| – | 4.40 | O=C(Cn1cncc(-c2nc(-c3ccccc3)cs2)c1=O)NC1CCCC1 |
| > 50 µM (inactive) | – | COc1cccc(/C=C/C(=O)Nc2ccc(N3CCOCC3)cc2)c1OC |
| – | 5.76 | CC(C)c1ccc(NC(=O)c2cc3ncc(Br)cn3n2)cc1 |
| > 50 µM (inactive) | – | CCCc1nc2sc3c(NCc4ccco4)ncnc3c2c2c1CCC2 |
| – | 4.68 | O=C(Nc1ncc2c(n1)-c1ccccc1CC2)C1CC1 |
| > 50 µM (inactive) | – | O=C(c1ccc2cc[nH]c2c1)N1CCC(Nc2cccnc2)C1 (centres undefined) |
| – | 4.86 | COc1cccc(NC(=O)Nc2nccn(-c3ccc(F)cc3)c2=O)c1 |
| > 50 µM (inactive) | – | COc1ccc(C(=O)CSc2nnc(-c3cccnc3)n2-c2ccccc2)cc1 |
| > 50 µM (inactive) | – | COc1ccc(C(=O)CSc2nnc(-c3cc4cccc(OC)c4o3)n2C)cc1OC |
| – | 4.41 | O=C(Nc1ccc(F)cc1F)c1csc(-c2ccccc2)n1 |
| > 50 µM (inactive) | – | CC1CCCCN1c1nc(F)c2c(c1F)S(=O)(=O)CCN2Cc1ccccc1 (centres undefined) |
| – | 4.42 | O=C1NCCCC1Cc1ccc(-c2cccc(C(=O)N3CCc4ccccc4C3)c2)cc1 (centres undefined) |
| > 50 µM (inactive) | – | COc1ccccc1C(=O)N1CCc2[nH]c3ccc(F)cc3c2C1 |
| – | 4.36 | O=c1ncn(Cc2ccc3c(c2)OCO3)cc1-c1ncc(C(F)(F)F)cc1Cl |
| – | 4.63 | Cc1nn(-c2ccc(F)cc2)cc1-c1noc(C(=O)NCc2ccccn2)n1 |
| – | 4.51 | Cc1cc(C)c2cc3c(nc2c1)OC(=O)N(Cc1ccco1)C3 |
| > 50 µM (inactive) | – | COC(=O)c1ccc(Cn2cnc3ccc(F)cc3c2=O)o1 |
| – | 5.40 | COc1ccc(CNc2nn3c(-c4cncc(OC)c4)cnc3s2)cc1 |
| – | 5.42 | Cc1ccc2nc(NC(=O)CSc3nnc(-c4ccncc4)n3C3CC3)sc2c1 |
| – | 5.75 | CCOC(=O)N1CCN(S(=O)(=O)c2ccc(C(=O)Nc3ccc(Br)cc3)cc2)CC1 |
| – | 5.11 | O=C(Cn1c(=O)n(Cc2ccc(F)cc2)c(=O)c2sccc21)Nc1cccc(Cl)c1 |
| > 50 µM (inactive) | – | COc1cccc(CC(=O)Nc2cc(F)c3nc(N4CCOCC4)ccc3c2)c1 |

| IC50 | pIC50 | SMILES |
| --- | --- | --- |
| – | 6.47 | Cc1c(OCC(=O)Nc2nc3ccccc3[nH]2)ccc2c3c(c(=O)oc12)CCC3 |
| > 50 µM (inactive) | – | O=C(CCc1ccc(S(=O)(=O)N2CCOCC2)cc1)Nc1ccc2c(c1)OCCO2 |
| > 50 µM (inactive) | – | CC1CCN(c2cc(-n3cnc(C(=O)N4CCCC(C)C4)c3)ncn2)CC1 (centres undefined) |
| – | 4.66 | O=C(NCc1ccccc1)c1ccc2c(=O)n(-c3ccccc3)c(=O)[nH]c2c1 |
| > 50 µM (inactive) | – | O=S(=O)(c1ccccc1Cl)N1CCN(c2ccc3nnc(-c4ccco4)n3n2)CC1 |
| > 50 µM (inactive) | – | CC[C@H](C)[C@H](NC(=O)[C@H]([C@@H](C)CC)N(C)C(C)=O)C(=O)N[C@H](C(=O)N[C@@H](CC(C)C)C(=O)C1(C)CO1)[C@@H](C)O (some centres undefined) |
| – | 4.37 | CO[C@H]1/C=C/OC2(C)Oc3c(C)c(O)c4c(c3C2=O)C2(C=C(NC(=O)/C(C)=C\C=C\[C@H](C)[C@H](O)[C@@H](C)[C@@H](O)[C@@H](C)[C@H](OC(C)=O)C1C)C4=O)OCC(=O)O2 (some centres undefined) |
| – | 4.43 | O=C(CSc1nnnn1-c1ccccc1)Nc1ccccc1 |
| > 50 µM (inactive) | – | O=c1c(-c2nc(C3CC3)no2)cccn1Cc1c(F)cccc1Cl |
| – | 4.68 | O=C(CSc1nnc(Cn2cnc3ccccc32)o1)Nc1ccc([N+](=O)[O-])cc1 |
| > 50 µM (inactive) | – | C/C=C\C1=CC(=O)[C@]23C[C@H]2[C@]2(C)CO[C@@]1(O)[C@@]3(O)O2 |
| – | 5.78 | Nc1c(C(=O)Nc2ccc3c(c2)OCO3)sc2nc(-c3cccnc3)ccc12 |
| – | 5.52 | COc1ccc(NC(=O)c2nnc(C(=O)NCCN3CCCCCC3)s2)cc1 |
| – | 5.58 | Cc1ccc2cccc(OCc3nnc(SCC(=O)c4ccc(Cl)cc4)n3C)c2n1 |
| – | 6.81 | Cc1cc(=O)n(C)c2c(O)c3c(cc12)c(C)cc(=O)n3C |
| > 50 µM (inactive) | – | CCn1ccc2c(cc(C(=O)Nc3cc(F)ccc3F)n2C)c1=O |
| > 50 µM (inactive) | – | CC1CCCN(CCCNC(=O)c2ccc(N3CCc4ccccc43)s2)C1 (centres undefined) |
| > 50 µM (inactive) | – | Cn1c(CN2CCCCCC2)nc2cc(NC(=O)c3ccccc3)ccc21 |
| – | 4.60 | COc1ccc2c(c1)CCc1c(C(=O)NCc3cccnc3)noc1-2 |
| > 50 µM (inactive) | – | COc1ccc(CCNc2c(-c3ccccc3O)nc3cnccn23)cc1OC |
| – | 5.24 | O=C(Nc1ccccc1Sc1ncc(-c2ccc(Cl)cc2)cn1)c1ccco1 |
| – | 5.28 | CCOc1ccc2c(c1)c(=O)c(C(=O)c1ccccc1)cn2CC(=O)Nc1ccccc1 |
| – | 4.37 | CC(C)c1ccc(NC(=O)COC(=O)c2ccc3[nH]c4c(c3c2)CCCC4)cc1 |
| – | 4.36 | Cc1cc(C)c2cc(CN(CCc3ccccc3)C(=O)Nc3ccccc3)c(=O)[nH]c2c1 |

| IC50 | pIC50 | SMILES |
| --- | --- | --- |
| – | 4.45 | O=C(COc1cccc2c1CCN(Cc1cccnc1)C2=O)Nc1ccc2c(c1)OCCO2 |
| > 50 µM (inactive) | – | CSc1cccc(NC(=O)CCc2ccc3nc(NC(C)=O)sc3c2)c1 |
| > 50 µM (inactive) | – | CN(C)CCc1cc2c(c3c1ccc1ccccc13)OCO2 |
| > 50 µM (inactive) | – | Cc1cnc(CN2CCCC(c3ccc4cn[nH]c4n3)C2)cn1 (centres undefined) |
| > 50 µM (inactive) | – | COc1ccc(N2CCN(Cc3nnnn3Cc3ccc4c(c3)OCO4)CC2)cc1 |
| > 50 µM (inactive) | – | O=C(NCC1CC1)C1CCCN(c2ccc(-c3ccccc3)nn2)C1 (centres undefined) |
| – | 4.43 | COc1ccc(-c2[nH]c3ccccc3c2SCCNC(=O)c2ccc(S(=O)(=O)N3CCOCC3)cc2)cc1 |
| > 50 µM (inactive) | – | Cc1ccc(S(=O)(=O)N2CCCCC2)cc1NC(=O)Cc1cccc(F)c1 |
| – | 4.60 | COc1ccc(N(CC(=O)Nc2cccc(F)c2)S(=O)(=O)c2ccc(OC)c(OC)c2)cc1 |
| – | 4.57 | C=C(NC(=O)C(=C)NC(=O)c1csc(-c2ccc3c(n2)-c2csc(n2)-c2csc(n2)C(C(C)C2CO2)NC(=O)C(Cc2ccc(O)cc2)NC(=O)c2csc(n2)C(C(O)c2ccccc2)NC(=O)c2nc(sc2C)C(CC(N)=O)NC(=O)c2csc-3n2)n1)C(=O)O (centres undefined) |
| > 50 µM (inactive) | – | NS(=O)(=O)c1cccc(NC(=O)CN2CCCc3ccccc32)c1 |
| > 50 µM (inactive) | – | CC1CCc2c(sc3ncnc(NC4CCN(CC(N)=O)CC4)c23)C1 (centres undefined) |
| > 50 µM (inactive) | – | COC(=O)c1cc2c(ccn2C)n1CC(=O)NC1CCCC1 |
| – | 4.37 | Cc1ccc(Cn2nnc(C(=O)NCc3ccco3)c2-n2cccc2)cc1 |
| – | 5.40 | COc1ccc(-c2cc3c(=O)n(CC(=O)Nc4ccccc4F)ccn3n2)cc1OC |
| > 50 µM (inactive) | – | COc1ccc(-n2nnc3c(SCC(=O)Nc4cc(C)on4)ncnc32)cc1 |
| > 50 µM (inactive) | – | COCCCN1CCS(=O)(=O)c2c(Cl)c(F)nc(Oc3ccc(C#N)cc3)c21 |
| > 50 µM (inactive) | – | Cc1ccc(S(=O)(=O)Nc2ccccc2SCCS(=O)(=O)c2ccc(Cl)cc2)cc1 |
| > 50 µM (inactive) | – | COc1ccc(C2CC(c3ccccc3)N(C(=O)C3CC3)c3ncnn32)cc1 (centres undefined) |
| > 50 µM (inactive) | – | Cc1nn(-c2ccc(Cl)cc2)c2[nH]c(=O)c(CNCC3CCCO3)cc12 (centres undefined) |
| – | 4.51 | CC1(C(=O)NC2CCCC2)Cn2c(cc3ccccc32)C(=O)N1c1ccc(F)cc1 (centres undefined) |
| > 50 µM (inactive) | – | COc1ccc(Cn2c(SCc3ccc(C(=O)NCCc4ccccc4)cc3)nc3ccncc32)cc1 |
| > 50 µM (inactive) | – | O=C(CSc1nnc(-c2ccc3c(c2)OCO3)n1-c1ccccc1)OCC(=O)c1ccccc1 |
| – | 4.81 | COc1cc(O)c2c(=O)c(-c3ccc(O)cc3)coc2c1 |

| IC50 | pIC50 | SMILES |
| --- | --- | --- |
| – | 4.93 | Cc1ccc(Cn2c(=O)n(CCC(=O)NCCc3ccccc3)c(=O)c3ccccc32)cc1 |
| – | 4.70 | O=C(CN1CCCCC1)Nc1nnc(-c2ccc([N+](=O)[O-])cc2)s1 |
| – | 4.47 | Nc1ncnc2c1ncn2[C@@H]1O[C@H](CO)C[C@@H]1O |
| > 50 µM (inactive) | – | Cc1c(CC(=O)Nc2nn[nH]n2)c(=O)oc2cc3c(cc12)CCC1(CCCCC1)O3 |
| > 50 µM (inactive) | – | Cc1ccc(C(=O)Nc2cc3c4c(c2)CC(=O)N4CCC3)cc1 |
| – | 4.93 | CC(CCc1ccccc1)NC(=O)Cn1c(=O)c2cccn2c2ccccc21 (centres undefined) |
| – | 5.36 | CCOc1ccc2[nH]c3c(=O)n(CCc4ccc(OC)cc4)cnc3c2c1 |
| – | 4.75 | CC1OC1C(=O)[C@]1(O)[C@H](C)[C@@H](O)[C@@]23O[C@@]2([C@H](O)c2c(O)cccc2C3=O)[C@H]1O (some centres undefined) |
| > 50 µM (inactive) | – | Cc1ccc(NC(=O)C2CCN(c3cncnc3N3CCCC3)CC2)cc1 |
| – | 4.41 | O=C(Nc1ccccc1)C1CCCN(C(=O)c2cc3ccccc3[nH]2)C1 (centres undefined) |
| > 50 µM (inactive) | – | COc1ccc(C2C(C(=O)C(C)(C)C)N3c4ccccc4C=CC3C23C(=O)c2ccccc2C3=O)c(OC)c1 (centres undefined) |
| > 50 µM (inactive) | – | CC1CCN(c2nc(F)c3c(c2F)S(=O)(=O)CCN3Cc2cccnc2)CC1 |
| – | 5.16 | COc1cccc(Cn2nc3n(CC(C)C)c(=O)c4ccc(C(=O)NCC(C)C)cc4n3c2=O)c1 |
| > 50 µM (inactive) | – | O=C(Nc1ccc2c(c1)OCCO2)Nc1nnc(CC(=O)N2CCCCC2)s1 |
| > 50 µM (inactive) | – | O=C(CSc1nncc2ccccc12)Nc1ccc2c(c1)OCO2 |
| – | 4.58 | COc1cc(OC)cc(-n2c(=O)c3sccc3n(CC(=O)c3ccc(F)cc3)c2=O)c1 |
| – | 4.65 | COc1ccc(C(C(=O)NC2CCCCC2)N(C(=O)CCCC(=O)Nc2ccccn2)c2ccccc2C)cc1 (centres undefined) |
| – | 5.00 | O=C1c2c(O)cccc2C2(Oc3cccc4cccc(c34)O2)C2OC12 (centres undefined) |
| > 50 µM (inactive) | – | Cc1ccc(C)c(Nc2cc(C)nc3nc(-c4ccco4)nn23)c1 |
| > 50 µM (inactive) | – | O=C(NCc1ccc(Cl)cc1)c1ccc(N2CCCS2(=O)=O)cc1 |
| > 50 µM (inactive) | – | CCCc1nc2sc3c(NCCc4ccc(OC)c(OC)c4)ncnc3c2c2c1CCC2 |

| SMILES | IC50 | pIC50 |
| --- | --- | --- |
| CN1C(=O)[C@@]23C[C@]4([C@@]56C[C@]78SS[C@](CO)(C(=O)N7[C@@H]5Nc5ccccc56)N(C)C8=O)c5ccccc5N[C@@H]4N2C(=O)[C@]1(CO)SS3 | > 50 µM (inactive) | – |
